Tested on: 3T3-L1 cells
Assay: Glucose-uptake test (2-DOG uptake) in 3T3-L1 cells
Assay type: cell-based
Conditions: Mus musculus, 3T3-L1, 24 h, 50 μg/ml, cpm divided by amount of proteins, read-out: 2-DOG Uptake (%) at a concentration of 50 μg/ml
Procedure: Glucose-uptake tests as a means for screening compounds for the effect of reducing the blood sugar level were carried out according to the following procedures. 1) Cell: The following cells were used. 3T3-L1 (purchased from Dainippon Pharmaceutical Co. Ltd.) 2) Reagents: The following reagents were used. DMEM (GIBCO); FBS (GIBCO); […] DMSO: dimethylsulfoxide (Wako Pure Chemical Co., Ltd.); ACS2 (Amersham); urea (Wako Pure Chemical Co., Ltd.); protein-determining kit (Bio Rad Code No.). 3) Instrument: The following instrument was used in the test. 24-well plate (Falcon) 3T3-L1 cells were dispersed in a 10% FBS-containing DME medium in a cell concentration of 10000 cells/ml, the resulting cell suspension was dispensed into a 24-well plate in an amount of 1 ml per well and the cells were cultivated in a 5% CO2 -incubator at 37° C. for 5 days. After soaking up the medium in the wells, the plate was washed once with PBS in an amount of 2 ml/well. […] The cells were cultivated in a sample compound-containing medium at 37° C. for 24 hours in a 5%-CO2 -incubator. After the cultivation, the medium was soaked up and the plate was washed three times with 2 ml/well each of PBS. […] After washing with 2 ml/well of PBS, the PBS was sufficiently soaked up. […] The lysate was also inspected for the amount of proteins using 0.2 ml out of the rest of the lysate, according to the microassay method using a protein-determining kit.

Structure (SMILES)	activity at 50 µg/mL [%]
O=C1NC(=O)C(Cc2cccc3c2ccn3Cc2ccc(F)cc2)S1 (stereo not drawn) [Example 52, 5-[1-(4-fluorobenzyl)indol-4-yl]-methyl-2,4-thiazolidinedione]	280
O=C1NC(=O)C(Cc2cccc3c2ccn3Cc2cccc(C(F)(F)F)c2)S1 (stereo not drawn) [Example 77, 5-[1-(3-trifluoromethylbenzyl)indol-4-yl]methyl-2,4-thiazolidinedione]	185
Cc1cccc(Cn2ccc3c(CC4SC(=O)NC4=O)cccc32)c1 (stereo not drawn) [Example 115, 5-[1-(3-methylbenzyl)indol-4-yl]methyl-2,4-thiazolidinedione]	162
O=C1NC(=O)C(Cc2cccc3c2ccn3Cc2cc(F)cc(F)c2)S1 (stereo not drawn) [Example 71, 5-[1-(3,5-difluorobenzyl)indol-4-yl]-methyl-2,4-thiazolidinedione]	250
O=C1NC(=O)C(Cc2cccc3c2ccn3CCc2ccccc2)S1 (stereo not drawn) [Example 121, 5-(1-phenethylindol-4-yl)methyl-2,4-thiazolidinedione]	218
O=C1NC(=O)C(Cc2cccc3c2ccn3CC2CCc3ccccc3N2)S1 (stereo not drawn) [Example 148, 5-{1-[(1,2,3,4-tetrahydroquinol-2-yl)methyl]indol-4-yl}methyl-2,4-thiazolidinedione]	153
N#Cc1ccc(Cn2ccc3c(CC4SC(=O)NC4=O)cccc32)cc1 (stereo not drawn) [Example 104, 5-[1-(4-cyanobenzyl)indol-4-yl]methyl-2,4-thiazolidinedione]	290
O=C1NC(=O)C(Cc2cccc3c2ccn3Cc2ccccc2)S1 (stereo not drawn) [Example 3, 5-(1-benzylindol-4-yl)methyl-2,4-thiazolidinedione]	217
N#Cc1cccc(Cn2ccc3c(CC4SC(=O)NC4=O)cccc32)c1 (stereo not drawn) [Example 101, 5-[1-(3-cyanobenzyl)indol-4-yl]methyl-2,4-thiazolidinedione]	240
O=C1NC(=O)C(Cc2cccc3c2ccn3Cc2cccc(F)c2F)S1 (stereo not drawn) [Example 55, 5-[1-(2,3-difluorobenzyl)indol-4-yl]-methyl-2,4-thiazolidinedione]	180
CC(c1ccccc1)n1ccc2c(CC3SC(=O)NC3=O)cccc21 (stereo not drawn) [Example 174, 5-[1-(α-methylbenzyl)indol-4-yl]methyl-2,4-thiazolidinedione]	252
O=C1NC(=O)C(Cc2ccc3c(ccn3CCc3ccccc3)c2)S1 (stereo not drawn) [Example 305, 5-(1-phenethylindol-5-yl)methyl-2,4-thiazolidinedione]	215
O=C1NC(=O)C(=Cc2cccc3c2ccn3Cc2ccc3ccccc3n2)S1 [Example 147, 5-{1-[(quinol-2-yl)methyl]indol-4-yl}methylene-2,4-thiazolidinedione]	156
O=C1NC(=O)C(Cc2cccc3c2ccn3Cc2cc(F)ccc2F)S1 (stereo not drawn) [Example 62, 5-[1-(2,5-difluorobenzyl)indol-4-yl]-methyl-2,4-thiazolidinedione]	192
COC(=O)c1ccc(Cn2ccc3c(CC4SC(=O)NC4=O)cccc32)cc1 (stereo not drawn) [Example 9, 5-[1-(4-methoxycarbonylbenzyl)indol-4-yl]methyl-2,4-thiazolidinedione]	180
COc1ccc(OC)c(Cn2ccc3c(CC4SC(=O)NC4=O)cccc32)c1 (stereo not drawn) [Example 98, 5-[1-(2,5-dimethoxybenzyl)indol-4-yl]methyl-2,4-thiazolidinedione]	180
O=C1NC(=O)C(Cc2cccc3c2ccn3CC(=O)c2ccccc2)S1 (stereo not drawn) [Example 187, 5-(1-phenacylindol-4-yl)methyl-2,4-thiazolidinedione]	174
O=C1NC(=O)C(Cc2cccc3c2ccn3Cc2ccc3c(c2)OCO3)S1 (stereo not drawn) [Example 112, 5-(1-piperonylindole-4-yl)methyl-2,4-thiazolidinedione]	155
O=C1NC(=O)C(=Cc2cccc3c2ccn3Cc2ccccc2)S1 [Example 2, 5-(1-benzylindol-4-yl)methylene-2,4-thiazolidinedione]	182
O=C1NC(=O)C(Cc2cccc3c2ccn3C2CCCCC2)S1 (stereo not drawn) [Example 180, 5-(1-cyclohexylindol-4-yl)methyl-2,4-thiazolidinedione]	232
O=C1NC(=O)C(Cc2cccc3c2ccn3S(=O)(=O)c2ccc(F)cc2)S1 (stereo not drawn) [Example 21, 5-[1-(4-fluorobenzenesulfonyl)indol-4-yl]-methyl-2,4-thiazolidinedione]	162
O=C1NC(=O)C(Cc2cccc3c2ccn3Cc2cccc(F)c2)S1 (stereo not drawn) [Example 50, 5-[1-(3-fluorobenzyl)indol-4-yl]-methyl-2,4-thiazolidinedione]	201

Tested on: not listed separately
Assay: Acute toxicity test, oral administration to rats
Conditions: rat, in vivo, orally administered
Procedure: The acute toxicity was determined by an acute toxicity test wherein each sample compound was orally administered to rats. The results (LD50 values) thus obtained are listed below: […]

Structure (SMILES)	LD50 [mg/kg]
O=C1NC(=O)C(Cc2cccc3c2ccn3Cc2ccc(F)cc2)S1 (stereo not drawn) [Example 52, 5-[1-(4-fluorobenzyl)indol-4-yl]-methyl-2,4-thiazolidinedione]	≥ 2000
O=C1NC(=O)C(Cc2cccc3c2ccn3Cc2ccccc2)S1 (stereo not drawn) [Example 3, 5-(1-benzylindol-4-yl)methyl-2,4-thiazolidinedione]	≥ 2000
